Values after ≈ are worked out from the molar mass of the structure shown.

In general, EC50 refers to the concentration at which the effect is half-maximal. Lower therefore signals an effect from little substance. What is called solubility is how much of the substance goes into solution per volume. A low value points to little dissolved substance. Usually inhibition in vivo stands for the relative decrease from the control value, in per cent.

In data set [1] the test system is Plasmodium falciparum. The data set is described as follows: Antimalarial activity against Plasmodium falciparum 3D7. Type of data set: functional, organism-based.
Data set [2] in a line: Intrinsic clearance in mouse liver microsomes. The format is ADME, Microsome. In general terms: Liver microsomes are a subcellular fraction often used to study metabolism.
Data set [3] in a line: Aqueous solubility of compound. Type of data set: physicochemical.
Data set [4] is described as follows: Selectivity index, ratio of CC50 for human MRC5 cells to EC50 for antimalarial activity against Plasmodium falciparum 3D7. The settings on record: read-out: Selectivity Index. The format is toxicity.
Data set [5] has as its system Plasmodium falciparum. The data set is described as follows: Antimalarial activity against drug resistant Plasmodium falciparum K1. The format is functional, organism-based.
Data set [6] deals with Plasmodium falciparum. The data set is described as follows: Antimalarial activity against drug resistant Plasmodium falciparum NF5. The format is functional, organism-based.
The test system of data set [7] is Plasmodium berghei. The data set is described as follows: Antimalarial activity against Plasmodium berghei infected in mouse assessed as reduction in parasitemia at 1 mg/kg, po dosed 4 times. The format is functional.
The subject of data set [8] is Plasmodium falciparum. The data set is described as follows: Antimalarial activity against drug resistant Plasmodium falciparum TM90C2A. The format is functional, organism-based.
In data set [9] the test system is Plasmodium falciparum. Description: Antimalarial activity against drug resistant Plasmodium falciparum 7G8. Type of data set: functional, organism-based.
Data set [10] has as its system Plasmodium berghei. Description: Antimalarial activity against Plasmodium berghei infected in orally dosed mouse assessed as reduction in parasitemia. The format is functional. Conditions: po.
Data set [11] concerns Plasmodium falciparum. Description: Antimalarial activity against drug resistant Plasmodium falciparum D6. The format is functional, organism-based.
Data set [12] concerns Plasmodium falciparum. The data set is described as follows: Antimalarial activity against drug resistant Plasmodium falciparum V1/S. The format is functional, organism-based.
Data set [13] deals with Plasmodium falciparum. The data set is described as follows: Antimalarial activity against drug resistant Plasmodium falciparum W2. The format is functional, organism-based.

In turn, `Cc1ccc(-c2cc(C(=O)NCCN3CCCC3)c3cc(F)ccc3n2)cc1` showed an EC50 in the data set on Plasmodium falciparum [1] of 700 nM. Besides, the Intrinsic clearance in [2] is 3.4 mL/min/g.

With `Cc1ccc(-c2cc(C(=O)Nc3cccnc3)c3cc(F)ccc3n2)cc1`, in data set [3], the solubility is 36 µM (≈ 12.9 µg/mL). In [2], this compound returned an Intrinsic clearance of 8.6 mL/min/g.

With `Cc1ccc(-c2cc(C(=O)Nc3cccnc3)c3cc(Br)ccc3n2)cc1`, the solubility in [3] was ≤ 39 µM. Also, in data set [2], the Intrinsic clearance result is “>= 5 ml/min/g”. Also, in [4], the selectivity ratio is > 100.

Turning to `O=C(NCCN1CCCC1)c1cc(-c2ccc(CN3CCOCC3)cc2)nc2ccc(F)cc12` [CABAMIQUINE], the EC50 is < 1 nM in the data set with Plasmodium falciparum [5]; < 1 nM with Plasmodium falciparum [6]; < 1 nM with Plasmodium falciparum [8]; 1 nM in the data set on Plasmodium falciparum [1]; < 1 nM in the data set with Plasmodium falciparum [9]; < 1 nM in the data set on Plasmodium falciparum [11]. Also, the EC50 in the data set with Plasmodium falciparum [12] and in the data set on Plasmodium falciparum [13] was < 1 nM in each case. Moreover, the inhibition in vivo at 1 mg/kg in the data set with Plasmodium berghei [7] was > 99%. Besides, the ED90 in the data set with Plasmodium berghei [10] came to 0.3 mg/kg. Besides, the Intrinsic clearance in data set [2] is < 0.9 mL/min/g.
